Reference: ChEMBL document CHEMBL5390237, “Discovery of Selective Histone Deacetylase 1 and 2 Inhibitors: Screening of a Focused Library Constructed by Click Chemistry, Kinetic Binding Analysis, and Biological Evaluation” (J Med Chem, 2023)

molecular target: Histone deacetylase 2 (Homo sapiens, UniProt Q92769); test: Inhibition of full-length recombinant human C-terminal GST tagged HDAC2 expressed in Sf9 insect cells using aminoluciferin peptide substrate at 100 nM preincubated for 3 hrs followed by substrate addition and measured after 30 mins by HDAC-Glo I/II chemiluminescence assay; settings: time 3.5 hrs
Sequence (Q92769 whole entry): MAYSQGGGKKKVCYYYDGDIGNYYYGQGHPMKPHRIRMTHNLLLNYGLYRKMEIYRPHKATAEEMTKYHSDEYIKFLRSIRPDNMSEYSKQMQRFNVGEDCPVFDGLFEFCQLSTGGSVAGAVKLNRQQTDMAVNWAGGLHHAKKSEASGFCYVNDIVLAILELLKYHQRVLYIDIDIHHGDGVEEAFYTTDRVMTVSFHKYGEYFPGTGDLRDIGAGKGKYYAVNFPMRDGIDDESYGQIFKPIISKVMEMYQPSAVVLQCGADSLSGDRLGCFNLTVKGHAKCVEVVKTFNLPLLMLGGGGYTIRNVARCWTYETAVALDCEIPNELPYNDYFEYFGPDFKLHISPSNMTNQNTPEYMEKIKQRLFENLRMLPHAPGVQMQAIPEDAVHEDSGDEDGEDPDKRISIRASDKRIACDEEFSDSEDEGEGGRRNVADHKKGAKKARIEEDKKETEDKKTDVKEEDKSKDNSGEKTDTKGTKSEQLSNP

Compound	inhibition [%]
Nc1ccc(-c2ccsc2)cc1NC(=O)c1cn(Cc2nc3ccccc3[nH]2)nn1	25
Nc1ccc(-c2cccs2)cc1NC(=O)c1cn(CCc2cccc3ccccc23)nn1	0
Nc1ccc(-c2cccs2)cc1NC(=O)c1cccc(-c2cn(CCc3ccsc3)nn2)c1	0
Cc1csc(CCn2cc(CCC(=O)Nc3cc(-c4cccs4)ccc3N)nn2)n1	30
Nc1ccc(-c2ccc(F)cc2)cc1NC(=O)c1cn(CCc2cccc([N+](=O)[O-])c2)nn1	20
Nc1ccc(-c2ccccc2)cc1NC(=O)CCc1cn(CCN2CCOCC2)nn1	0
CCc1ccc(Cn2cc(CCC(=O)Nc3cc(-c4ccccc4)ccc3N)nn2)cc1	1
Nc1ccc(-c2ccccc2)cc1NC(=O)c1cn(CC2CCCCC2)nn1	0
Nc1ccc(-c2cccs2)cc1NC(=O)c1ccc(-c2cn(/C=C/c3ccccc3)nn2)s1	5
Nc1ccc(-c2ccsc2)cc1NC(=O)c1cn(CCCCCCC(=O)O)nn1	8
Nc1ccc(-c2ccccc2)cc1NC(=O)c1cn(CC(=O)Nc2ccc(F)cc2)nn1	0
Nc1ccc(-c2ccc(F)cc2)cc1NC(=O)CCc1cn(CCCCC(=O)O)nn1	0
Nc1ccc(-c2cccs2)cc1NC(=O)c1ccc(-c2cn(CC34CC5CC(CC(C5)C3)C4)nn2)s1	0
Nc1ccc(-c2ccsc2)cc1NC(=O)CCc1cn(CCc2ccsc2)nn1	19
Nc1ccc(-c2ccsc2)cc1NC(=O)c1cn(/C=C/c2ccccc2)nn1	5
Nc1ccc(-c2ccccc2)cc1NC(=O)CCc1cn(CCc2cccc([N+](=O)[O-])c2)nn1	30
Nc1ccc(-c2ccccc2)cc1NC(=O)CCc1cn(CCc2c[nH]c3ccccc23)nn1	20
Nc1ccc(-c2ccsc2)cc1NC(=O)c1cn(CCCCCc2ccccc2)nn1	0
Nc1ccc(-c2ccccc2)cc1NC(=O)c1cn(CCc2ccccc2[N+](=O)[O-])nn1	0
Nc1ccc(-c2cccs2)cc1NC(=O)c1cn(CCc2cccc(F)c2)nn1	0
COc1ccccc1CCn1cc(CCC(=O)Nc2cc(-c3cccnc3)ccc2N)nn1	10
Nc1ccc(-c2cccs2)cc1NC(=O)c1ccc(-c2cn(CCc3ccccc3[N+](=O)[O-])nn2)s1	16
Nc1ccc(-c2ccc(F)cc2)cc1NC(=O)c1cn(CCC23CC4CC(CC(C4)C2)C3)nn1	2
Cc1cccc(C)c1NC(=O)Cn1cc(CCC(=O)Nc2cc(-c3ccc(F)cc3)ccc2N)nn1	18

Compound	inhibition [%]
Nc1ccc(-c2cccnc2)cc1NC(=O)CCc1cn(CCN2CCc3ccccc3C2)nn1	5
Nc1ccc(-c2cccs2)cc1NC(=O)c1cn(CCc2ccc(C(=O)O)cc2)nn1	16
Nc1ccc(-c2cccs2)cc1NC(=O)c1cccc(-c2cn(Cc3nc4ccccc4[nH]3)nn2)c1	32
Nc1ccc(-c2cccs2)cc1NC(=O)c1cccc(-c2cn(-c3ccc(O)cc3)nn2)c1	13
COc1ccc(-n2cc(C(=O)Nc3cc(-c4ccsc4)ccc3N)nn2)cc1	22
Cc1ccc(CCn2cc(-c3ccc(C(=O)Nc4cc(-c5cccs5)ccc4N)cc3)nn2)cc1	19
Nc1ccc(-c2cccnc2)cc1NC(=O)CCc1cn(Cc2ccc3ccccc3c2)nn1	19
COc1ccccc1CCn1cc(-c2ccc(C(=O)Nc3cc(-c4cccs4)ccc3N)cc2)nn1	29
Nc1ccc(-c2ccccc2)cc1NC(=O)CCc1cn(Cc2cccc3ccccc23)nn1	9
Nc1ccc(-c2cccs2)cc1NC(=O)c1cn(CC(=O)c2ccccc2)nn1	15
Nc1ccc(-c2ccccc2)cc1NC(=O)c1cn(CCCc2ccccc2)nn1	6
Nc1ccc(-c2cccs2)cc1NC(=O)c1ccc(-c2cn(CCN3CCc4ccccc4C3)nn2)cc1	0
Nc1ccc(-c2ccc(F)cc2)cc1NC(=O)CCc1cn(-c2ccc(O)cc2)nn1	3
Nc1ccc(-c2cccs2)cc1NC(=O)c1ccc(-c2cn(CCc3c[nH]c4ccccc34)nn2)s1	38
Nc1ccc(-c2cccs2)cc1NC(=O)c1ccc(-c2cn(-c3ccccc3-c3ccccc3)nn2)s1	0
Nc1ccc(-n2cc(C(=O)Nc3cc(-c4ccsc4)ccc3N)nn2)cc1	31
Nc1ccc(-c2cccs2)cc1NC(=O)c1cccc(-c2cn(CCCCCCC(=O)O)nn2)c1	30
Nc1ccc(-c2ccccc2)cc1NC(=O)c1cn(CCc2c[nH]c3ccccc23)nn1	0
Nc1ccc(-c2ccsc2)cc1NC(=O)c1cn(CCc2ccccn2)nn1	1
Nc1ccc(-c2cccs2)cc1NC(=O)c1ccc(-c2cn(CCc3ccccc3C(F)(F)F)nn2)cc1	0
Nc1ccc(-c2ccsc2)cc1NC(=O)c1cn(CCN2CCc3ccccc3C2)nn1	18
Nc1ccc(-c2cccs2)cc1NC(=O)CCc1cn(CCc2ccccc2)nn1	26
Nc1ccc(-c2cccs2)cc1NC(=O)CCc1cn(Cc2ccc(OC(F)(F)F)cc2)nn1	17
Nc1ccc(-c2cccs2)cc1NC(=O)c1cn(Cc2ccc(Oc3ccccc3)cc2)nn1	0

Compound	inhibition [%]
CCc1ccc(Cn2cc(CCC(=O)Nc3cc(-c4ccc(F)cc4)ccc3N)nn2)cc1	2
Nc1ccc(-c2cccs2)cc1NC(=O)c1cn(CCc2ccsc2)nn1	0
Nc1ccc(-c2cccnc2)cc1NC(=O)CCc1cn(/C=C/c2ccccc2)nn1	7
Nc1ccc(-c2ccccc2)cc1NC(=O)CCc1cn(-c2ccccc2-c2ccccc2)nn1	2
Nc1ccc(-c2ccccc2)cc1NC(=O)CCc1cn(CCCCC(=O)O)nn1	0
Nc1ccc(-c2cccs2)cc1NC(=O)c1cn(CCCCCc2ccccc2)nn1	1
Cc1cccc(C)c1NC(=O)Cn1cc(CCC(=O)Nc2cc(-c3ccccc3)ccc2N)nn1	19
Nc1ccc(-c2ccccc2)cc1NC(=O)c1cn(CCCCCCCC(=O)O)nn1	0
Nc1ccc(-c2cccs2)cc1NC(=O)c1cccc(-c2cn(Cc3ccc(-c4ccccc4)cc3)nn2)c1	0
Nc1ccc(-c2ccccc2)cc1NC(=O)c1cn(CC(=O)c2ccccc2)nn1	0
Nc1ccc(-c2cccs2)cc1NC(=O)c1ccc(-c2cn(CCCCCCC(=O)O)nn2)cc1	0
Nc1ccc(-c2cccs2)cc1NC(=O)c1cn(Cc2cc3ccccc3s2)nn1	8
Nc1ccc(-c2ccccc2)cc1NC(=O)CCc1cn(CC2CCCCC2)nn1	0
Nc1ccc(-c2ccccc2)cc1NC(=O)CCc1cn(Cc2ccc(Oc3ccccc3)cc2)nn1	0
Nc1ccc(-c2ccccc2)cc1NC(=O)c1cn(CCc2ccccn2)nn1	0
CCc1ccc(Cn2cc(CCC(=O)Nc3cc(-c4cccs4)ccc3N)nn2)cc1	10
Nc1ccc(-c2ccc(F)cc2)cc1NC(=O)CCc1cn(Cc2ccc(C(=O)O)cc2)nn1	39
Nc1ccc(-c2cccs2)cc1NC(=O)CCc1cn(CCCCC(=O)O)nn1	2
Nc1ccc(-c2cccs2)cc1NC(=O)c1cn(Cc2ccc(-c3ccccc3)cc2)nn1	0
Nc1ccc(-n2cc(-c3ccc(C(=O)Nc4cc(-c5cccs5)ccc4N)cc3)nn2)cc1	51
Nc1ccc(-c2ccccc2)cc1NC(=O)CCc1cn(Cc2cccc(-c3ccccc3)c2)nn1	0
Cc1ccc(-n2cc(C(=O)Nc3cc(-c4ccsc4)ccc3N)nn2)cc1C	0
Nc1ccc(-c2ccc(F)cc2)cc1NC(=O)c1cn(CCCCCC(=O)O)nn1	20
Cc1csc(CCn2cc(CCC(=O)Nc3cc(-c4ccc(F)cc4)ccc3N)nn2)n1	37

Compound	inhibition [%]
Nc1ccc(-c2ccccc2)cc1NC(=O)c1cn(Cc2ccc(Oc3ccccc3)cc2)nn1	0
Nc1ccc(-c2ccc(F)cc2)cc1NC(=O)CCc1cn(CCc2ccccn2)nn1	18
Nc1ccc(-c2ccc(F)cc2)cc1NC(=O)c1cn(CCc2ccccc2[N+](=O)[O-])nn1	12
Nc1ccc(-c2cccs2)cc1NC(=O)c1ccc(-c2cn(Cc3cccc(C(=O)O)c3)nn2)cc1	0
Nc1ccc(-c2cccnc2)cc1NC(=O)CCc1cn(Cc2ccc(C(=O)O)cc2)nn1	7
Nc1ccc(-c2cccs2)cc1NC(=O)c1cccc(-c2cn(CCCCCc3ccccc3)nn2)c1	0
Nc1ccc(-c2cccs2)cc1NC(=O)c1cccc(-c2cn(CCc3ccccc3Cl)nn2)c1	0
Nc1ccc(-c2cccs2)cc1NC(=O)c1ccc(-c2cn(CCN3CCc4ccccc4C3)nn2)s1	32
Cc1ccc(-n2cc(CCC(=O)Nc3cc(-c4ccc(F)cc4)ccc3N)nn2)cc1C	0
Nc1ccc(-c2cccs2)cc1NC(=O)c1cccc(-c2cn(CCCc3ccccc3)nn2)c1	4
Nc1ccc(-c2ccsc2)cc1NC(=O)c1cn(-c2ccccc2-c2ccccc2)nn1	0
Nc1ccc(-c2ccc(F)cc2)cc1NC(=O)CCc1cn(CCc2ccccc2C(F)(F)F)nn1	0
Cc1ccc(-n2cc(CCC(=O)Nc3cc(-c4cccs4)ccc3N)nn2)cc1C	0
Nc1ccc(-c2ccsc2)cc1NC(=O)CCc1cn(Cc2cccc3ccccc23)nn1	2
COc1ccccc1CCn1cc(CCC(=O)Nc2cc(-c3ccc(F)cc3)ccc2N)nn1	10
Cc1ccc(-n2cc(-c3cccc(C(=O)Nc4cc(-c5cccs5)ccc4N)c3)nn2)cc1C	5
Nc1ccc(-c2ccc(F)cc2)cc1NC(=O)CCc1cn(-c2ccc(I)cc2)nn1	0
Nc1ccc(-c2cccs2)cc1NC(=O)c1ccc(-c2cn(CCc3ccccc3Cl)nn2)s1	5
Nc1ccc(-c2cccnc2)cc1NC(=O)CCc1cn(CCCCC(=O)O)nn1	0
Nc1ccc(-c2cccs2)cc1NC(=O)c1cccc(-c2cn(CCCCC(=O)O)nn2)c1	48
Nc1ccc(-c2ccsc2)cc1NC(=O)c1cn(CCc2ccc(Cl)cc2)nn1	0
Nc1ccc(-c2cccs2)cc1NC(=O)c1cn(Cc2ccc3ccccc3n2)nn1	12
Nc1ccc(-c2cccs2)cc1NC(=O)c1ccc(-c2cn(Cc3ccc(Oc4ccccc4)cc3)nn2)s1	0
